Assay results from ChEMBL document CHEMBL5725503, “Heterocyclic compounds and methods for their use” (2017).

Target: T1, Type-2 angiotensin II receptor (Homo sapiens, UniProt P50052)
T1 sequence (P50052 whole entry): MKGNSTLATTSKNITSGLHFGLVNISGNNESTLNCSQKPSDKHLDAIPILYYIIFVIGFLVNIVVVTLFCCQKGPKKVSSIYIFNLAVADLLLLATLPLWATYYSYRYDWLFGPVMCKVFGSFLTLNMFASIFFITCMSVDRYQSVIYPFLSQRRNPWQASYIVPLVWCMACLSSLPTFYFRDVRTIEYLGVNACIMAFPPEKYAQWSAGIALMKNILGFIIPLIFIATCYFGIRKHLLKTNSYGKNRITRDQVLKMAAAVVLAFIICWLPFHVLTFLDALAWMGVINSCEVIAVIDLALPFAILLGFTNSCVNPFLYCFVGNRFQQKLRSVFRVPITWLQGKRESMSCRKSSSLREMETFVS
Test: AT2 Receptor Binding Assay: 120 μL membrane ([…]) was incubated with 15 μL of [125I]-CGP42112A and 15 μL of compound at RT for 1.5 hrs.The binding reaction was stopped by rapid filtration through Unifilter GF/C plates (presoaked in 0.3% (v:v) BSA).Plate was washed three times with ice cold wash buffer.The filtration plates were dried at 37° C. overnight.50 μL of scintillation cocktail was added to each well.Radioactivity was determined using MicroBetaTriltuunicroplate scintillation counter.

An IC50 of 3.92 µM was found for `O=C(O)[C@@H]1CN(CC#Cc2ccc(F)cc2)CCN1C(=O)C(c1ccccc1)c1ccccc1` in this work.
